Patent US6613536B1, “Synthetic peptides and pharmaceutical compositions comprising them for the treatment of systemic lupus erythematosus” (Yeda Research and Development Co. Ltd., priority 1995, dated 2003)

What was measured:
[1] = test system: SJL/J and BALB/c mice; assay: Anti-DNA antibodies in sera of immunized mice (ELISA); assay type: in vivo, mouse; settings: for anti-DNA antibodies in sera: sera three months after booster; for levels of autoantibodies including anti-DNA and anti-NE antibodies: SJL mice immunized with IIIa, BALB/c mice immunized with Ia
Procedure: ELISA was utilized for the detection and quantitation of antibodies in experimental mice, and in humans. Polystyrene microtiter plates were coated with the relevant antigen or antibody, and sera dilutions or supernatants derived from the human or mouse cell cultures were added to the blocked plates. Specific binding was determined following the addition of peroxidase-conjugated antibodies against the appropriate immunoglobulin (Ig) (e.g. goat anti-human or goat anti-mouse peroxidase-conjugated antibodies) and the peroxidase substrate. Optical densities were read at 414 nm using an ELISA reader.
SJL/J and BALB/c female mice (6-8 week old) were immunized with 20 μg of peptide Ia or IIIa of the invention, or with a control peptide designated p278 (the peptide desinated Pep 278h described in published PCT International Application WO 94/03208) or with mAb 5G12 emulsified in complete Freund's adjuvant (CFA) in the foot pads. Three weeks later the mice received a booster injection with the same amount of peptide or mAb, in PBS. Thereafter, blood was drawn every two weeks. A fifth group included non-immunized mice.
ELISA was utilized to test the presence of the anti-DNA antibodies in the sera of the mice, as follows : Plates (Nunc) were coated for 90 min with 10 μg/ml of methylated BSA. Thereafter the plates were washed (all the washes were 3 times with PBS/0.05% Tween 20 (Sigma)) and incubated for an additional 90 min with 10 μg/ml of single-stranded DNA (calf thymus DNA (Sigma) that was heated for 15 min at 90° C. and fast-cooled). The plates were washed and blocked overnight with 1% ovalbumin in PBS (Sigma). Thereafter, the plates were washed and incubated with the sera of the mice diluted in the blocking reagent, followed by wash and incubation with 1:500 dilution of goat anti-mouse IgG (Fc receptor specific) polyclonal antibody conjugated to peroxidase. The plates were then washed and developed using ABTS substrate (Sigma), and the color was read using an ELISA reader at 414 nm. Results are expressed as mean OD of each mouse group (5 mice per group).

[2] = test system: SJL/J and BALB/c mice; assay: Anti-RNP, Sm, Ro and La antibodies in sera of immunized mice (ELISA); assay type: in vivo, mouse; settings: for anti-RNP antibodies in sera / anti-Sm, anti-La and anti-Ro antibodies in sera: BALB/c mice; for anti-RNP, anti-Sm and anti-La antibodies in sera: sera diluted 1:10, compared to normal mice or p278
Procedure: The same sera of the mice as described in Examples 2 and 3 were used for detection of anti-RNP, Sm, Ro and La antibodies.
Plates were purchased as pre-coated plates and were blocked with 1% ovalbumin in PBS for 2 hr. Thereafter the plates were washed as in Example 2 above, incubated in duplicates with 1:10 diluted sera, washed again and ELISA was carried out as described in Example 2 above.

[3] = test system: BALB/c and SJL mice; assay: Clinical manifestations of SLE in immunized mice (WBC, proteinuria, kidney analysis); assay type: in vivo, mouse; settings: for W.B.C., white blood cell counts / proteinuria: five months after immunization; for number of white blood cells (in words): in comparison to non-immunized mice or p278-immunized mice
Procedure: The erythrocyte sedimentation rate was determined by diluting the heparinized blood in PBS at a ratio of 1:1. The diluted blood was then passed to a microsampling pipette and the sedimentation was measured 6 hours later. White blood cell counts were determined after the hemolysis of heparinized blood. Proteinuria was measured in a semi-quantitative manner, using a Combistix kit (Ames, Stoke Poges, Slough, U.K.). Immunohistology was performed by incubation of fixed frozen cryostat sections with FITC-labeled antibodies to mouse Ig. Staining was visualized via use of a fluorescent microscope.
BALBtc and SJL mice were immunized with mAb 5G12 or with peptides Ia and IIIa, and five months later were checked by two criteria for manifestation of SLE: white blood cell count (WBC) and proteinuria.
(i) White blood cell count (WBC): The mice were bled, their blood was diluted 1:10 with 1% (vol/vol) acetic acid in order to eliminate the red blood cells, and white blood cells were counted under a normal light microscope.
Proteinuria: The urine of the mice was tested using combisticks (Combistix Kit, Ames) for the presence of protein.

[4] = test system: lymph node cells (LNC) of BALB/c and SJL mice; assay: In vivo inhibition of LNC proliferation to human mAb 16/6 Id; settings: 200 μg/mouse i.v., vs not treated or p307
Procedure: BALB/c (FIG. 7a) and SJL (FIG. 7b) mice were immunized with human mAb 16/6 Id (1 μg/mouse in CFA i.d. in the hind footpads) and were injected (200 μg/mouse i.v. in PBS) with either peptide Ia or IIIa, respectively. Proliferation responses to mAb 16/6 Id were measured in LNC taken from immunized but not-treated mice (filled squares), from mice treated concomitantly with immunization with the control peptide p307 (half filled squares) or from mice treated with the appropriate CDR-based peptide Ia or IIIa (open squares). Proliferation responses were also shown to the immunodominant CDR-based peptide Ia or IIIa of LNC taken from 16/6 Id immunized non-treated mice (filled circles) or from mice treated with the appropriate CDR-based peptide Ia or IIIa (open circles). Results are expressed as mean CPM of triplicates.

[5] = test system: peripheral blood lymphocytes (PBL); assay: IL-2 production by PBL of SLE patients and healthy controls; assay type: cell-based, human; settings: sample at 24 hr
Procedure: PBL from human SLE patients and of the appropriate control donors (2×10^5/well) were cultured in microtiter plates in enriched medium containing 10% pooled AB sera in the presence of the human or mouse monoclonal 16/6 Id antibody, in the presence of peptides of the invention or in the presence of phytohemagglutinin (PHA). The rate of proliferation was evaluated by the incorporation of ^3[H]-thymidine in the cell culture. Non-relevant peptides were used as specificity controls. Antigen and mitogen-stimulated cytokine production was quantitated in the supernatants of the above cultures using either the cytokine-dependent lines or the appropriate pairs of antibodies in ELISA assays. Inhibition of the proliferative responses was performed in vitro by adding increasing doses of the tested peptide analogs into the proliferative culture mixtures.
PBL were isolated from blood of SLE patients or healthy controls using ficol gradient, and were incubated as in Example 13. A sample of 50 μl was removed 24 hr after the assay was started, and incubated in the presence of IL-2 sensitive cells (CTLD) for 24 hr, after which ^3H-thymidine was added for 16 hr, and the plates were harvested and counted on a beta counter.

[6] = BALB/c mice immunized with 20 μg in CFA plus booster
[7] = SJL/J mice immunized with 20 μg in CFA plus booster

Substance	anti-DNA antibodies in sera [1, 6]	levels of autoantibodies including anti-DNA and anti-NE antibodies [1]	anti-DNA antibodies in sera [1, 7]	anti-RNP antibodies in sera ([2]; sera diluted 1:10)	anti-Sm, anti-La and anti-Ro antibodies in sera ([2]; sera diluted 1:10)	anti-RNP, anti-Sm and anti-La antibodies in sera ([2]; SJL/J mice)	protein level in urine (in words) ([3]; BALB/c mice)	W.B.C., white blood cell counts ([3]; BALB/c mice)	proteinuria ([3]; BALB/c mice)	protein level in urine (in words) ([3]; SJL mice)	proteinuria ([3]; SJL mice)	number of white blood cells (in words) [3]	proliferative responses to mAb 16/6 Id of LNC ([4]; BALB/c mice immunized with human mAb 16/6 Id)	IL-2 production by PBL, actual number of responders ([5]; SLE patients)	IL-2 production by PBL, percentage of responders ([5]; SLE patients)	IL-2 production by PBL, actual number of responders ([5]; healthy controls)	IL-2 production by PBL, percentage of responders ([5]; healthy controls)	anti-Ro autoantibodies in sera ([2]; SJL/J mice, sera diluted 1:10)	W.B.C., white blood cell counts ([3]; SJL mice)	proliferative responses to mAb 16/6 Id of LNC ([4]; SJL mice immunized with human mAb 16/6 Id)
TGYYMQWVKQSPEKSLEWIG [peptide Ia]	show presence of anti-DNA antibodies	elevated levels of autoantibodies	Low levels of anti-DNA antibodies	very high levels of anti-RNP antibodies	produced detectable antibodies	High levels of anti-RNP, anti-Sm and anti-La antibodies	High levels of protein	3375 ± 350 per mm^3	0.88 ± 0.076 g/L	smaller increase in protein level	0.375 ± 0.04 g/L	lower number of white blood cells	inhibited	5/32	16%	14/25	56%			
YYYCARFLWEPYAMDYWGQGS (YYCARFLWEPYAMDYWGQGS) [peptide IIIa, based on the CDR3 region of the VH chain of mAb 5G12]	did not show presence of anti-DNA antibodies	elevated levels of autoantibodies	high level of anti-DNA antibodies	very high levels of anti-RNP antibodies	very low levels of anti-Sm, anti-La and anti-Ro antibodies	High levels of anti-RNP, anti-Sm and anti-La antibodies		3325 ± 400 per mm^3	0.30 ± 0.01 g/L		0.9 ± 0.075 g/L	lower number of white blood cells		5/32	16%	16/25	64%	extremely high levels of anti-Ro autoantibodies	3300 ± 1343 per mm^3	inhibited
